The values that follow come from ChEMBL document CHEMBL1133112, “Structure-function relationships in aminoquinolines: effect of amino and chloro groups on quinoline-hematin complex formation, inhibition of beta-hematin formation, and antiplasmodial activity” (J Med Chem, 2000).

The subject of one experiment is Plasmodium falciparum. Kind of experiment: In vitro antiplasmodial activity against Plasmodium falciparum D10. It is filed as functional, organism-based.
For experiment [1], the system named is Ferriprotoporphyrin IX.
Description: Association constant with ferriprotoporphyrin IX.
Experiment [2] addresses T1, Histidine-rich protein PFHRP-II (Plasmodium falciparum) (UniProt P05227).
T1 sequence (whole entry): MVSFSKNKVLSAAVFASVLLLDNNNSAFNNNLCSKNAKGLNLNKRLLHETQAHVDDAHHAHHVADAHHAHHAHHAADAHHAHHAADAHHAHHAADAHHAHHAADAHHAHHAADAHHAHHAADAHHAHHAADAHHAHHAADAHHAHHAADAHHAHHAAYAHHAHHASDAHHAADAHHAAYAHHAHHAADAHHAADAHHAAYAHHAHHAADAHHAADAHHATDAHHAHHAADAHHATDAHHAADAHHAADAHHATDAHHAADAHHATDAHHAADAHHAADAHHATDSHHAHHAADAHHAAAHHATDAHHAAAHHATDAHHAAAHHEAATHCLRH

In experiment [3] the test system is Ferriprotoporphyrin IX. Kind of experiment: LogK (Association constant) with ferriprotoporphyrin IX.

Calls of active or inactive are those of the source. The calls are words filed in the database; no cut-off is given here.

For orientation: IC50 means the point on the concentration scale where inhibition reaches its midpoint. Low values mean greater potency in that assay, high ones weaker potency in that assay. Consider `Clc1ccc2c(Cl)ccnc2c1`, for which the half-maximal inhibitory concentration (IC50) in the experiment on Plasmodium falciparum is over 10 µM. The Log K in the experiment on Ferriprotoporphyrin IX [1] was under 2.5. The NI entry in experiment [2] was “No inhibition”.
As to `Nc1ccnc2cc(Cl)ccc12`, in the experiment on Plasmodium falciparum, the midpoint of inhibition, the IC50, lay at 3.8 µM. Further, the Log K in the experiment on Ferriprotoporphyrin IX [1] was 4.43.
As for `CNc1ccnc2cc(Cl)ccc12`, in the experiment on Plasmodium falciparum, the half-inhibitory concentration (IC50) was found to be 4 µM. Besides, in the experiment on Ferriprotoporphyrin IX [1], the Log K was determined as 4.48.
As for `CCN(CC)CCNc1ccnc2ccccc12`, half-maximal inhibition in the experiment on Plasmodium falciparum (IC50) was put at 0.799 µM. In addition, in the experiment with Ferriprotoporphyrin IX [3], the Log K2 is 3.2. For the same compound, in the experiment with Ferriprotoporphyrin IX [1], the Log K is 4.75. The NI entry in experiment [2] is “No inhibition”.
As to `NCCNc1ccnc2cc(Cl)ccc12`, in the experiment with Plasmodium falciparum, the IC50 is 0.092 µM. Moreover, the Log K in the experiment with Ferriprotoporphyrin IX [1] amounted to 4.93.
Regarding `Nc1ccc2ncccc2c1`, the concentration for half-maximal inhibition (IC50) with Plasmodium falciparum was over 10 µM. Besides, in the experiment with Ferriprotoporphyrin IX [1], the Log K was under 2.5. The NI result in experiment [2] is “No inhibition”.
For `CNc1ccc2ccccc2n1`, in that order: over 10 µM, 4.26 and “inactive”.
`c1ccc2ncccc2c1` [QUINOLINE]: in the experiment on Plasmodium falciparum, the half-maximal inhibitory concentration (IC50) is over 10 µM. Also, the Log K in the experiment on Ferriprotoporphyrin IX [1] was under 2.5. Besides, in experiment [2], the NI entry is “inactive”.
For `Nc1ccnc2ccccc12` [QUINOLIN-4-AMINE], in that order: over 10 µM, 4.49 and “No inhibition”.
For `Nc1cnc2ccccc2c1` the same measures were over 10 µM, under 2.5 and “inactive”.
Take `CNc1ccnc2ccccc12`: the IC50 in the experiment with Plasmodium falciparum is over 10 µM. This compound also came in with a Log K with Ferriprotoporphyrin IX [1] of 4.38. Also, the NI result in experiment [2] is “No inhibition”.
For the compound `CCN(CC)CCNc1ccnc2cc(Cl)ccc12`, in the experiment on Plasmodium falciparum, the IC50 stood at 0.049 µM. The compound further had a Log K2 in the experiment on Ferriprotoporphyrin IX [3] of 4.47. In the experiment with Ferriprotoporphyrin IX [1], this compound returned a Log K of 5.81.
In turn, `OCCNc1ccnc2ccccc12` came in with a 50% inhibitory concentration (IC50) in the experiment with Plasmodium falciparum of over 10 µM. This compound yielded a Log K with Ferriprotoporphyrin IX [1] of 4.18. For the same compound, in experiment [2], the NI entry was “No inhibition”.
`OCCNc1ccnc2cc(Cl)ccc12`: the half-maximal inhibitory concentration (IC50) in the experiment on Plasmodium falciparum came to 5.07 µM. In the experiment with Ferriprotoporphyrin IX [1], this compound came in with a Log K of 4.66.
For `NCCNc1ccc2ccccc2n1`, in the experiment with Plasmodium falciparum, the IC50 was over 10 µM. In the experiment on Ferriprotoporphyrin IX [1], this compound yielded a Log K of 4.34. Further, the NI entry in experiment [2] is “No inhibition”.
For `CC(=O)NCCNc1ccnc2ccccc12` the same measures were over 10 µM, 4.28 and “No inhibition”.
For `Nc1cccc2cccnc12` [8-AMINOQUINOLINE], in that order: over 10 µM, under 2.5 and “No inhibition”.
`NCCNc1ccnc2ccccc12` returned an IC50 with Plasmodium falciparum of 4.7 µM. In the experiment on Ferriprotoporphyrin IX [1], the Log K was 4.59. In addition, in experiment [2], the NI result was “No inhibition”.
`Nc1cccc2ncccc12`: in the experiment on Plasmodium falciparum, the concentration for half-maximal inhibition (IC50) was over 10 µM. In the experiment with Ferriprotoporphyrin IX [1], the Log K is under 2.5. Further, the NI result in experiment [2] was “No inhibition”.
In the experiment on Plasmodium falciparum, `CN(C)CCNc1ccnc2cc(Cl)ccc12` registered an IC50 of 0.0809 µM. The Log K in the experiment on Ferriprotoporphyrin IX [1] was determined as 4.96.
